Measured values published in US10568890B2 (Xi'An Libang Pharmaceutical Co., Ltd, priority 2012, dated 2020).
Values after ≈ are worked out from the molar mass of the structure shown.

What was measured:
[1] = Test of miscibility of formulae in vitro; type: physicochemical
Protocol: Ethyl lactate was mixed with ethyl oleate, glycerol triacetate, benzyl benzoate, castor oil, sesame oil, soybean oil, corn oil and olive oil respectively for miscibility, and then the conditions of miscibility were observed. Specifically, 1) adding 0.50 ml of ethyl lactate for each one into eight vials of 7 ml each, and then adding 0.50 ml of ethyl oleate, glycerol triacetate, benzyl benzoate, castor oil, sesame oil, soybean oil, corn oil and olive oil thereto respectively; swirl them for 5 min to be mixed uniformly, followed by standing for 10 min, and then observing and recording the conditions of miscibility of various solvents; 2) adding 0.30 ml of sesame oil, soybean oil, corn oil, olive oil, ethyl oleate, glycerol triacetate and benzyl benzoate respectively into seven vials of 7 ml each; and then adding 0.30 ml of castor oil and 0.30 ml of ethyl lactate thereto; swirl them for 5 min to be mixed uniformly, followed by standing for 10 min; and then observing and recording the conditions of miscibility of various solvents.

[2] = system: advanced breast cancer patients (postmenopausal); settings: after treatment failure of first-line non-steroid drugs; cited from earlier work
[3] = Solubility test of fulvestrant in some solvents; type: physicochemical; settings: 25° C.
Protocol: If it was dissolved completely, the addition of the drug was resumed to reach a saturated state. Nitrogen was introduced, and the vials were kept airtight and free of light for 1-2 days to reach a dissolution-precipitation balance.

CCOC(=O)C(C)O (stereo not drawn) [ethyl lactate, ethyl α-hydroxylpropionate]
miscibility of ethyl lactate ([1]; with benzyl benzoate, 0.50 ml each): miscible
miscibility of ethyl lactate ([1]; with castor oil, 0.50 ml each): miscible
miscibility of ethyl lactate ([1]; with corn oil, 0.50 ml each): immiscible
miscibility of ethyl lactate ([1]; with ethyl oleate, 0.50 ml each): miscible
miscibility of ethyl lactate ([1]; with glycerol triacetate, 0.50 ml each): miscible
miscibility of ethyl lactate ([1]; with mixed oil 1 (1:1 ethyl oleate and castor oil)): miscible
miscibility of ethyl lactate ([1]; with mixed oil 2 (1:1 benzyl benzoate and castor oil)): miscible
miscibility of ethyl lactate ([1]; with mixed oil 3 (1:1 glycerol triacetate and castor oil)): miscible
miscibility of ethyl lactate ([1]; with mixed oil 4 (1:1 sesame oil and castor oil)): miscible
miscibility of ethyl lactate ([1]; with mixed oil 5 (1:1 corn oil and castor oil)): miscible
miscibility of ethyl lactate ([1]; with mixed oil 6 (1:1 olive oil and castor oil)): miscible
miscibility of ethyl lactate ([1]; with mixed oil 7 (1:1 soybean oil and castor oil)): miscible
miscibility of ethyl lactate ([1]; with olive oil, 0.50 ml each): immiscible
miscibility of ethyl lactate ([1]; with sesame oil, 0.50 ml each): immiscible
miscibility of ethyl lactate ([1]; with soybean oil, 0.50 ml each): immiscible

C=C1C[C@@H]2[C@H](CC[C@]3(C)C(=O)CC[C@@H]23)[C@@]2(C)C=CC(=O)C=C12 [exemestane]
overall response rate [2]: 28%

C[C@]12CC[C@@H]3c4ccc(O)cc4C[C@@H](CCCCCCCCC[S+]([O-])CCCC(F)(F)C(F)(F)F)[C@H]3[C@@H]1CC[C@@H]2O (stereo partly shown) [fulvestrant]
Solubility ([3]; in benzyl propionate): 4.34 mg/mL (≈ 7.15 mM)
Solubility ([3]; in isopentyl acetate): 50.98 mg/mL (≈ 84 mM)
overall response rate [2]: 37%
